Reference: PMC4876444, “Two-Photon Enzymatic Probes Visualizing Sub-cellular/Deep-brain Caspase Activities in Neurodegenerative Models” (Scientific Reports, 2016)

Experiments:
[1] = system: caspase-3-like activities in STS-induced BV2 and HeLa cells; assay: TPFM live-cell imaging of STS-induced apoptotic cells; format: cell-based, mouse, human; conditions: BV2 (STS 2 μM) and HeLa (STS 1 μM) cells, 4 h STS, probe 24 μM 1 h; not in mock cells
Description: Figure 3 Bioimaging of active caspases in live cells. TPFM (λex = 760 nm; λem = 480-550 nm for all AAN-probes) of STS-induced (a) BV2 cells (2 μM, 4 h) and (b) HeLa cells (1 μM, 4 h) using C3RA/C8RA (24 μM, 1 h). Panels 3/6: cells pretreated with Z-VAD(OMe)-FMK (50 μM, 1 h) before STS addition. Panels 1/4: normal cells (DMSO). (c) WB analysis of cleaved caspase-3/-8 from (a,b). (d) TPFM of normal/apoptotic Hela cells imaged by C3RA (24 μM, up) or Ac-DEVD-AMC (40 μM, down; λem = 420–500 nm). Panels 1/3: normal cells. Panels 2/4: STS-induced cells (1 μM, 4 h). Bottom inset: bright field. Top inset: one-photon images (λex = 405 nm). (e) Real-time imaging of caspase-3/-8-like activities in live BV2 cells using 24 μM of C3RA (top)/C8RA (bottom) upon STS (2 μM) stimulation over 2 h. (f) Graphical quantification of RFU extracted from (e). (g) WB analysis of time-dependent caspase-3/-8 cleavage from STS-induced (2 μM) BV2 lysates. (h) WB analysis of time-dependent caspase-3/-7/-8 activation by detection of cleaved caspase-3/-7/-8 from lysates of HeLa cells stimulated with STS (2 μM). (i) RFU from real-time imaging of caspase-3-like activity in live HeLa cells with C3RA/C3RM/C3RE (24 μM, added 1 h before STS) upon STS (2 μM) stimulation. (j) Representative images (t = 60 min) from (i). (k) IF of STS-stimulated (2 μM, 2 h) HeLa cells by anti-caspase-3 (p17) antibody (red) with 3D projections of z-stack images at 90° view and merged with MitoTracker (green, left) or ER tracker (cyan, right). (l) TPFM of caspase-1 activation in primary cortical neurons upon glucose deprivation (GD, 8 h) followed by 1-h incubation with C1RB (24 μM) or C1FS (12 μM; λem = 450–550 nm). Inset: bright field images. NC: neuron cells incubated in normal neurobasal medium. Scale bar = 10 μm in all images.
NIH/3T3, HeLa and BV2 cell lines used in our experiments were cultured in DMEM medium supplemented with 10% (for NIH/3T3 and HeLa) or 5% (for BV2) fetal bovine serum (FBS), with 100.0 mg/L streptomycin and 100 IU/mL penicillin. […]

## CC(=O)N[C@@H](CC(=O)O)C(=O)N[C@@H](CCC(=O)O)C(=O)N[C@H](C(=O)N[C@@H](CC(=O)O)C(=O)Nc1ccc2cc(C(C)=O)ccc2c1)C(C)C [C3RA, Ac-DEVD-AAN]
other
  λem (emission maximum): 448 nm
[1]
  intracellular two-photon fluorescence after STS treatment: strong intracellular fluorescence
